Assay results as given in BindingDB's records for doi:10.1016/j.bmcl.2004.06.037 (Alcon Research, 2004).

Biological target: Prostaglandin F2-alpha receptor (Mus musculus) (UniProt P43117)
Assay: Efficacy for stimulation of prostanoid FP receptor-linked phosphoinositide turnover in Swiss 3T3 mouse fibroblast cells

Sequence of Prostaglandin F2-alpha receptor (Mus musculus) (P43117 whole entry, looked up): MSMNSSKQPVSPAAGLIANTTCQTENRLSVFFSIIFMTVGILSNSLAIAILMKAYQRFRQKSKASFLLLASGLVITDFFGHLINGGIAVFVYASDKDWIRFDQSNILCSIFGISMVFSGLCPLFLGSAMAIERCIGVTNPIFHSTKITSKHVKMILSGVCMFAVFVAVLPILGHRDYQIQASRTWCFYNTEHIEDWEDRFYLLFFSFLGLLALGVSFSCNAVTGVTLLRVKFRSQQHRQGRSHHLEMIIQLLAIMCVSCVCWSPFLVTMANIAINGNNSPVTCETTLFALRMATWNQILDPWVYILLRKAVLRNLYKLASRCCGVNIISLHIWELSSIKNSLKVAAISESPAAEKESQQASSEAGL

| EC50 [nM] | Structure (SMILES) |
| --- | --- |
| 2.7 | CC(C)OC(=O)CCC/C=C/C[C@@H]1[C@@H](/C=C/C(O)COc2cccc(C(F)(F)F)c2)[C@H](O)C[C@@H]1O (stereo partly drawn) [(E)-7-{(1R,2R,3R,5S)-3,5-Dihydroxy-2-[(E)-3-hydroxy-4-(3-trifluoromethyl-phenoxy)-but-1-enyl]-cyclopentyl}-hept-5-enoic acid isopropyl ester] |
| 187 | O=C(O)CCCC/C=C\C[C@H]1[C@@H](O)CO[C@@H]1/C=C/[C@@H](O)COc1cccc(C(F)(F)F)c1 [(Z)-8-{(2R,3S,4R)-4-Hydroxy-2-[(E)-(R)-3-hydroxy-4-(3-trifluoromethyl-phenoxy)-but-1-enyl]-tetrahydro-furan-3-yl}-oct-6-enoic acid] |
| 899 | O=C(O)CCCC/C=C\C[C@H]1[C@@H](O)CO[C@@H]1/C=C/[C@H](O)COc1cccc(C(F)(F)F)c1 [(Z)-8-{(2R,3S,4R)-4-Hydroxy-2-[(E)-(S)-3-hydroxy-4-(3-trifluoromethyl-phenoxy)-but-1-enyl]-tetrahydro-furan-3-yl}-oct-6-enoic acid] |
| 249 | O=C(O)CC/C=C\CCC[C@H]1[C@@H](O)CO[C@@H]1/C=C/[C@H](O)COc1cccc(Cl)c1 [(Z)-8-{(2R,3S,4R)-2-[(E)-(S)-4-(3-Chloro-phenoxy)-3-hydroxy-but-1-enyl]-4-hydroxy-tetrahydro-furan-3-yl}-oct-4-enoic acid] |
| 57 | O=C(O)CC/C=C\CCC[C@H]1[C@@H](O)CO[C@@H]1/C=C/[C@@H](O)COc1ccccc1 [(Z)-8-[(2R,3S,4R)-4-Hydroxy-2-((E)-(R)-3-hydroxy-4-phenoxy-but-1-enyl)-tetrahydro-furan-3-yl]-oct-4-enoic acid] |
| 252 | O=C(O)CC/C=C\CCC[C@H]1[C@@H](O)CO[C@@H]1/C=C/[C@H](O)COc1ccccc1 [(Z)-8-[(2R,3S,4R)-4-Hydroxy-2-((E)-(S)-3-hydroxy-4-phenoxy-but-1-enyl)-tetrahydro-furan-3-yl]-oct-4-enoic acid] |
| 67 | O=C(O)CC/C=C\CCC[C@H]1[C@@H](O)CO[C@@H]1/C=C/[C@@H](O)COc1cccc(C(F)(F)F)c1 [(Z)-8-{(2R,3S,4R)-4-Hydroxy-2-[(E)-(R)-3-hydroxy-4-(3-trifluoromethyl-phenoxy)-but-1-enyl]-tetrahydro-furan-3-yl}-oct-4-enoic acid] |
| 293 | O=C(O)CCCC/C=C\C[C@H]1[C@@H](O)CO[C@@H]1/C=C/[C@@H](O)COc1ccccc1 [(Z)-8-[(2R,3S,4R)-4-Hydroxy-2-((E)-(R)-3-hydroxy-4-phenoxy-but-1-enyl)-tetrahydro-furan-3-yl]-oct-6-enoic acid] |
| > 10000 | CCCCC[C@@H](O)/C=C/[C@H]1OC[C@H](O)[C@@H]1C/C=C\CCCC(=O)O [(Z)-7-[(2R,3S,4R)-4-Hydroxy-2-((E)-(R)-3-hydroxy-oct-1-enyl)-tetrahydro-furan-3-yl]-hept-5-enoic acid] |
| 58 | O=C(O)CCCC/C=C\C[C@H]1[C@@H](O)CO[C@@H]1/C=C/[C@@H](O)COc1cccc(Cl)c1 [(Z)-8-{(2R,3S,4R)-2-[(E)-(R)-4-(3-Chloro-phenoxy)-3-hydroxy-but-1-enyl]-4-hydroxy-tetrahydro-furan-3-yl}-oct-6-enoic acid] |
| 2380 | CCCCC[C@H](O)/C=C/[C@H]1OC[C@H](O)[C@@H]1C/C=C\CCCC(=O)O [(Z)-7-[(2R,3S,4R)-4-Hydroxy-2-((E)-(S)-3-hydroxy-oct-1-enyl)-tetrahydro-furan-3-yl]-hept-5-enoic acid] |
| 34.4 | CC(C)OC(=O)CCC/C=C/C[C@@H]1[C@@H](CC[C@@H](O)CCc2ccccc2)[C@H](O)C[C@@H]1O [LATANOPROST (PHXA41)] |
| 194 | O=C(O)CCCC/C=C\C[C@H]1[C@@H](O)CO[C@@H]1/C=C/[C@H](O)COc1cccc(Cl)c1 [(Z)-8-{(2R,3S,4R)-2-[(E)-(S)-4-(3-Chloro-phenoxy)-3-hydroxy-but-1-enyl]-4-hydroxy-tetrahydro-furan-3-yl}-oct-6-enoic acid] |
| 23 | O=C(O)CC/C=C\CCC[C@H]1[C@@H](O)CO[C@@H]1/C=C/[C@@H](O)COc1cccc(Cl)c1 [(Z)-8-{(2R,3S,4R)-2-[(E)-(R)-4-(3-Chloro-phenoxy)-3-hydroxy-but-1-enyl]-4-hydroxy-tetrahydro-furan-3-yl}-oct-4-enoic acid] |
| 781 | O=C(O)CC/C=C\CCC[C@H]1[C@@H](O)CO[C@@H]1/C=C/[C@H](O)COc1cccc(C(F)(F)F)c1 [(Z)-8-{(2R,3S,4R)-4-Hydroxy-2-[(E)-(S)-3-hydroxy-4-(3-trifluoromethyl-phenoxy)-but-1-enyl]-tetrahydro-furan-3-yl}-oct-4-enoic acid] |
| 573 | O=C(O)CCCC/C=C\C[C@H]1[C@@H](O)CO[C@@H]1/C=C/[C@H](O)COc1ccccc1 [(Z)-8-[(R)-4-Hydroxy-2-((1R,2S,4S)-3-hydroxy-4-phenoxy-but-1-enyl)-tetrahydro-furan-3-yl]-oct-6-enoic acid] |
